Reference: PubChem BioAssay (NCI)
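Five compound concentrations were applied to cells in 96-well plates for 48 hours; endpoints were derived by simple linear interpolation of the resulting dose-response curve. TGI is the concentration that stops growth completely.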

Assays:
Test in all cases: DTP human tumour cell line panel, 48 h
NCI-H226 lung = test system: NCI-H226 lung
CAKI-1 renal = test system: CAKI-1 renal
COLO 205 colon = test system: COLO 205 colon
RPMI-8226 leukemia = test system: RPMI-8226 leukemia
MOLT-4 leukemia = test system: MOLT-4 leukemia
NCI/ADR-RES ovarian = test system: NCI/ADR-RES ovarian
TK-10 renal = test system: TK-10 renal
A549 NSCLC = test system: A549 NSCLC
HOP-62 NSCLC = test system: HOP-62 NSCLC
SR leukemia = test system: SR leukemia
OVCAR-3 ovarian = test system: OVCAR-3 ovarian
K-562 leukemia = test system: K-562 leukemia
SK-MEL-5 melanoma = test system: SK-MEL-5 melanoma
NCI-H23 lung = test system: NCI-H23 lung
786-0 renal = test system: 786-0 renal
HCT-116 colon = test system: HCT-116 colon
SK-OV-3 ovarian = test system: SK-OV-3 ovarian
SW-620 colon = test system: SW-620 colon
HOP-92 NSCLC = test system: HOP-92 NSCLC
HT29 colon = test system: HT29 colon
DU-145 prostate = test system: DU-145 prostate
MALME-3M melanoma = test system: MALME-3M melanoma
EKVX NSCLC = test system: EKVX NSCLC
BT-549 breast = test system: BT-549 breast
HCT-15 colon = test system: HCT-15 colon
SNB-75 CNS = test system: SNB-75 CNS
SF-295 CNS = test system: SF-295 CNS
MDA-N = test system: MDA-N
OVCAR-8 ovarian = test system: OVCAR-8 ovarian
SF-268 CNS = test system: SF-268 CNS
PC-3 prostate = test system: PC-3 prostate
NCI-H522 lung = test system: NCI-H522 lung
SNB-19 CNS = test system: SNB-19 CNS
HCC-2998 colon = test system: HCC-2998 colon
IGROV1 ovarian = test system: IGROV1 ovarian
UACC-62 melanoma = test system: UACC-62 melanoma
HL-60(TB) leukemia = test system: HL-60(TB) leukemia
OVCAR-5 ovarian = test system: OVCAR-5 ovarian
UACC-257 melanoma = test system: UACC-257 melanoma
M14 melanoma = test system: M14 melanoma
ACHN renal = test system: ACHN renal
KM12 colon = test system: KM12 colon
UO-31 renal = test system: UO-31 renal
SK-MEL-28 melanoma = test system: SK-MEL-28 melanoma
RXF 393 renal = test system: RXF 393 renal
SN12C renal = test system: SN12C renal
NCI-H460 lung = test system: NCI-H460 lung
SK-MEL-2 melanoma = test system: SK-MEL-2 melanoma
MCF7 breast = test system: MCF7 breast
CCRF-CEM leukemia = test system: CCRF-CEM leukemia
SF-539 CNS = test system: SF-539 CNS
OVCAR-4 ovarian = test system: OVCAR-4 ovarian
U251 CNS = test system: U251 CNS
LOX IMVI melanoma = test system: LOX IMVI melanoma
MDA-MB-435 = test system: MDA-MB-435
MDA-MB-231 breast = test system: MDA-MB-231 breast
A498 renal = test system: A498 renal
HS 578T breast = test system: HS 578T breast

## N#C/C(=C\c1cc(F)cc(F)c1)c1ccccn1
NCI-H226 lung
  TGI: 56.9 µM
CAKI-1 renal
  TGI: > 100 µM
COLO 205 colon
  TGI: > 10 µM
RPMI-8226 leukemia
  TGI: > 100 µM
MOLT-4 leukemia
  TGI: 45.8 µM
NCI/ADR-RES ovarian
  TGI: 66.9 µM
TK-10 renal
  TGI: > 100 µM
A549 NSCLC
  TGI: > 100 µM
HOP-62 NSCLC
  TGI: > 10 µM
SR leukemia
  TGI: 88.6 µM
OVCAR-3 ovarian
  TGI: > 100 µM
K-562 leukemia
  TGI: > 100 µM
SK-MEL-5 melanoma
  TGI: > 100 µM
NCI-H23 lung
  TGI: 72.8 µM
786-0 renal
  TGI: > 10 µM
HCT-116 colon
  TGI: > 100 µM
SK-OV-3 ovarian
  TGI: > 100 µM
SW-620 colon
  TGI: > 10 µM
HOP-92 NSCLC
  TGI: 48.1 µM
HT29 colon
  TGI: > 100 µM
DU-145 prostate
  TGI: > 100 µM
MALME-3M melanoma
  TGI: 73.9 µM
EKVX NSCLC
  TGI: 44.3 µM
BT-549 breast
  TGI: 97.1 µM
HCT-15 colon
  TGI: 34.2 µM
SNB-75 CNS
  TGI: > 100 µM
SF-295 CNS
  TGI: 60.2 µM
MDA-N
  TGI: > 100 µM
OVCAR-8 ovarian
  TGI: 45.4 µM
SF-268 CNS
  TGI: 52.8 µM
PC-3 prostate
  TGI: > 100 µM
NCI-H522 lung
  TGI: 74.8 µM
SNB-19 CNS
  TGI: > 100 µM
HCC-2998 colon
  TGI: 60 µM
IGROV1 ovarian
  TGI: > 100 µM
UACC-62 melanoma
  TGI: > 100 µM
HL-60(TB) leukemia
  TGI: > 10 µM
OVCAR-5 ovarian
  TGI: > 100 µM
UACC-257 melanoma
  TGI: > 100 µM
M14 melanoma
  TGI: 88.6 µM
ACHN renal
  TGI: > 100 µM
KM12 colon
  TGI: 68 µM
UO-31 renal
  TGI: > 100 µM
SK-MEL-28 melanoma
  TGI: > 100 µM
RXF 393 renal
  TGI: > 100 µM
SN12C renal
  TGI: 62.9 µM
NCI-H460 lung
  TGI: 74 µM
SK-MEL-2 melanoma
  TGI: > 100 µM
MCF7 breast
  TGI: > 100 µM
CCRF-CEM leukemia
  TGI: > 100 µM
SF-539 CNS
  TGI: 43.5 µM
OVCAR-4 ovarian
  TGI: > 100 µM
U251 CNS
  TGI: 40 µM

## CC(C)C1=C(O)C2=C(C(=O)C1=O)C1(C)CCCC(C)(C)C1CC2O (stereo unspecified)
CAKI-1 renal
  TGI: 24.1 µM
COLO 205 colon
  TGI: > 100 µM
MOLT-4 leukemia
  TGI: > 100 µM
TK-10 renal
  TGI: > 100 µM
LOX IMVI melanoma
  TGI: > 100 µM
MDA-MB-435
  TGI: 13.6 µM
A549 NSCLC
  TGI: 34.8 µM
HOP-62 NSCLC
  TGI: 21.1 µM
SR leukemia
  TGI: 58.4 µM
OVCAR-3 ovarian
  TGI: 29 µM
K-562 leukemia
  TGI: > 100 µM
SK-MEL-5 melanoma
  TGI: 5.23 µM
NCI-H23 lung
  TGI: 3.93 µM
786-0 renal
  TGI: > 100 µM
HCT-116 colon
  TGI: > 100 µM
SK-OV-3 ovarian
  TGI: 45.5 µM
SW-620 colon
  TGI: 63.2 µM
HOP-92 NSCLC
  TGI: 13.3 µM
HT29 colon
  TGI: 62 µM
DU-145 prostate
  TGI: > 100 µM
MALME-3M melanoma
  TGI: 16.6 µM
MDA-MB-231 breast
  TGI: 9.46 µM
EKVX NSCLC
  TGI: 49.7 µM
BT-549 breast
  TGI: 25.9 µM
HCT-15 colon
  TGI: 13.8 µM
SNB-75 CNS
  TGI: > 100 µM
SF-295 CNS
  TGI: 64.4 µM
MDA-N
  TGI: 4.76 µM
OVCAR-8 ovarian
  TGI: 90.7 µM
SF-268 CNS
  TGI: > 100 µM
PC-3 prostate
  TGI: 31.7 µM
NCI-H522 lung
  TGI: 53.7 µM
SNB-19 CNS
  TGI: 21.4 µM
HCC-2998 colon
  TGI: 12 µM
IGROV1 ovarian
  TGI: 77.7 µM
A498 renal
  TGI: 38.6 µM
UACC-62 melanoma
  TGI: 8.66 µM
HL-60(TB) leukemia
  TGI: 30.4 µM
OVCAR-5 ovarian
  TGI: 43.2 µM
UACC-257 melanoma
  TGI: 31.9 µM
M14 melanoma
  TGI: 15.3 µM
HS 578T breast
  TGI: > 100 µM
ACHN renal
  TGI: 13.2 µM
KM12 colon
  TGI: 19 µM
UO-31 renal
  TGI: 17.9 µM
SK-MEL-28 melanoma
  TGI: 38.5 µM
RXF 393 renal
  TGI: 5.89 µM
SN12C renal
  TGI: 28 µM
NCI-H460 lung
  TGI: 12.8 µM
SK-MEL-2 melanoma
  TGI: 11 µM
MCF7 breast
  TGI: 22.8 µM
CCRF-CEM leukemia
  TGI: 23.6 µM
SF-539 CNS
  TGI: 52.7 µM
OVCAR-4 ovarian
  TGI: 82.6 µM
U251 CNS
  TGI: > 100 µM

## O=C(N=Nc1c(O)[nH]c2c(Cl)cc(Cl)cc12)c1ccccc1O
NCI-H226 lung
  TGI: 29.4 µM
CAKI-1 renal
  TGI: 31.1 µM
COLO 205 colon
  TGI: 38.5 µM
MOLT-4 leukemia
  TGI: 31 µM
NCI/ADR-RES ovarian
  TGI: 26.3 µM
TK-10 renal
  TGI: 29.3 µM
LOX IMVI melanoma
  TGI: 28 µM
MDA-MB-435
  TGI: 26.9 µM
A549 NSCLC
  TGI: 27.4 µM
HOP-62 NSCLC
  TGI: 29.2 µM
SR leukemia
  TGI: 23.7 µM
OVCAR-3 ovarian
  TGI: 25.1 µM
SK-MEL-5 melanoma
  TGI: 28.7 µM
NCI-H23 lung
  TGI: 33.1 µM
786-0 renal
  TGI: 26.3 µM
HCT-116 colon
  TGI: 27.3 µM
SK-OV-3 ovarian
  TGI: 30.6 µM
SW-620 colon
  TGI: 34.5 µM
HOP-92 NSCLC
  TGI: 28.6 µM
HT29 colon
  TGI: 34.8 µM
MALME-3M melanoma
  TGI: 27.1 µM
MDA-MB-231 breast
  TGI: 30.1 µM
EKVX NSCLC
  TGI: 26.3 µM
BT-549 breast
  TGI: 27.7 µM
HCT-15 colon
  TGI: 29.2 µM
SNB-75 CNS
  TGI: 22.8 µM
SF-295 CNS
  TGI: 28.4 µM
MDA-N
  TGI: 28.1 µM
OVCAR-8 ovarian
  TGI: 25.2 µM
PC-3 prostate
  TGI: 29 µM
SNB-19 CNS
  TGI: 27.8 µM
HCC-2998 colon
  TGI: 31.1 µM
IGROV1 ovarian
  TGI: 26.9 µM
A498 renal
  TGI: 30.8 µM
UACC-62 melanoma
  TGI: 24.8 µM
HL-60(TB) leukemia
  TGI: 43.4 µM
OVCAR-5 ovarian
  TGI: 32.4 µM
UACC-257 melanoma
  TGI: 33.2 µM
M14 melanoma
  TGI: 30.3 µM
HS 578T breast
  TGI: 29 µM
ACHN renal
  TGI: 25.8 µM
KM12 colon
  TGI: 29.5 µM
UO-31 renal
  TGI: 24.3 µM
SK-MEL-28 melanoma
  TGI: 30 µM
RXF 393 renal
  TGI: 25.3 µM
SN12C renal
  TGI: 30.5 µM
NCI-H460 lung
  TGI: 27.6 µM
SK-MEL-2 melanoma
  TGI: 26.1 µM
MCF7 breast
  TGI: 41 µM
CCRF-CEM leukemia
  TGI: 46.9 µM
SF-539 CNS
  TGI: 29.6 µM
OVCAR-4 ovarian
  TGI: 26.9 µM
U251 CNS
  TGI: 21 µM
